From patent US8551721B2, “Bioluminescent detection of cyanohydroxy benzothiazole compounds” (Promega Corporation, priority 2008, dated 2013)

Assays:
Type in all cases: biochemical
UGT 1A6 = biological target: T1, UGT 1A6 (Homo sapiens, UniProt P19224); test: UGT activity: utilization of substrate by recombinant UGT 1A6 Supersomes; conditions: 2 hour incubation at 37° C., plus vs minus UDPGA
T1 construct: purchased BD Gentest; host or cells: insect cells (microsomes)
T1 sequence (P19224 27-532): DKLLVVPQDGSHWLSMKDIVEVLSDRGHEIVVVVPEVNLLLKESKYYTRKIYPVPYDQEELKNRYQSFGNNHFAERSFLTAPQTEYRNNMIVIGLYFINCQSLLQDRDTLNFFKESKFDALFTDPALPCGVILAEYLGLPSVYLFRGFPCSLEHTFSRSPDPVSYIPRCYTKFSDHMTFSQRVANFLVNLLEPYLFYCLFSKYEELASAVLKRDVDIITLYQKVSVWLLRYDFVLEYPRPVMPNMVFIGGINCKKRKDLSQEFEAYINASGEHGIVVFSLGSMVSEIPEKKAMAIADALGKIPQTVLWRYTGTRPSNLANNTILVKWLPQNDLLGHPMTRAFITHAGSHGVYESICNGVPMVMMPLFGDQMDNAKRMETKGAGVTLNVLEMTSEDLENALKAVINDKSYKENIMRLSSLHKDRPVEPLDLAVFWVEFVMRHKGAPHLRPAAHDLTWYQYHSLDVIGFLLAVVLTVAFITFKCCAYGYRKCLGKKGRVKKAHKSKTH
Method: (§1) The invention includes a method of determining activity of the uridine 5′-diphospho-glucuronosyltransferase (UDP-glucuronosyltransferase, or UGT) family enzymes in vitro. Briefly, UGT enzymes from overexpressed insect microsomes (Supersomes™, BD Gentest™) or animal tissue microsomes (Xenotech, BD Gentest™) were incubated with a cyanobenzothiazole substrate of the invention and the cofactor UDP-glucuronic acid (UDPGA) at 37° C. in buffer at physiological pH containing MgCl2 and alamethicin (typically, 50 mM TES, pH 7.5, 8 mM MgCl2, 4 mM UDPGA (Sigma) and 25 μg/mL alamethicin (Sigma)). Following the UGT enzyme reaction, an equal volume of P450-Glo Luciferin Detection Reagent (Promega) containing 15-30 mM D-cysteine-HCl.H2O (Sigma) was added and the plate was mixed and incubated at room temperature, typically for 20-30 minutes. […]
(§2) During this incubation, the cysteine reacts with the cyanobenzathiozole substrate to yield a D-luciferin derivative. […] Therefore, activity of the UGT enzyme can be measured by analyzing the difference (lower or no output) in relative light units (RLU) of a sample in which glucuronidation occurs compared to a sample that was run under the same conditions with no added UDPGA cofactor. […]
(§3) Reactions were assembled in a white 96-well plate. […] After the incubation was completed, the plate was read on a Veritas™ luminometer (Turner BioSystems, Inc.; Sunnyvale, Calif.). […]

UGT 1A7 = biological target: T2, UGT 1A7 (Homo sapiens, UniProt Q9HAW7); test: UGT activity: utilization of substrate by recombinant UGT 1A7 Supersomes; conditions: 2 hour incubation at 37° C., plus vs minus UDPGA
T2 construct: purchased BD Gentest; host or cells: insect cells (microsomes)
T2 sequence (Q9HAW7 26-530): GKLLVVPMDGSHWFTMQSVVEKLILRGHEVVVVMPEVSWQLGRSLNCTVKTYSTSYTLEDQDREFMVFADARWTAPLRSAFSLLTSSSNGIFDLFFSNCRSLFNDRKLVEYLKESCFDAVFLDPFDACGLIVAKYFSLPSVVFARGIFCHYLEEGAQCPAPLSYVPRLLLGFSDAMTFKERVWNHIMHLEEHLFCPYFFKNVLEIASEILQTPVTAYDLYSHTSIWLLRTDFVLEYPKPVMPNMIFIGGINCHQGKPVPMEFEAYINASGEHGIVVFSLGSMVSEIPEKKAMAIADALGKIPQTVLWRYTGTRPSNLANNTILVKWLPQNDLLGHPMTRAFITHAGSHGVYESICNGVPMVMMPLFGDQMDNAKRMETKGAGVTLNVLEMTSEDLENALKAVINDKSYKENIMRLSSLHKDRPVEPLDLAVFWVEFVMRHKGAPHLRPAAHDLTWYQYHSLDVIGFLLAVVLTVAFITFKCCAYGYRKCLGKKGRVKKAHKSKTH
Method: as §1, §2, §3

UGT 1A8 = biological target: T3, UGT 1A8 (Homo sapiens, UniProt Q9HAW9); test: UGT activity: utilization of substrate by recombinant UGT 1A8 Supersomes; conditions: 2 hour incubation at 37° C., plus vs minus UDPGA, background corrected
T3 construct: purchased BD Gentest; host or cells: insect cells (microsomes)
T3 sequence (Q9HAW9 26-530): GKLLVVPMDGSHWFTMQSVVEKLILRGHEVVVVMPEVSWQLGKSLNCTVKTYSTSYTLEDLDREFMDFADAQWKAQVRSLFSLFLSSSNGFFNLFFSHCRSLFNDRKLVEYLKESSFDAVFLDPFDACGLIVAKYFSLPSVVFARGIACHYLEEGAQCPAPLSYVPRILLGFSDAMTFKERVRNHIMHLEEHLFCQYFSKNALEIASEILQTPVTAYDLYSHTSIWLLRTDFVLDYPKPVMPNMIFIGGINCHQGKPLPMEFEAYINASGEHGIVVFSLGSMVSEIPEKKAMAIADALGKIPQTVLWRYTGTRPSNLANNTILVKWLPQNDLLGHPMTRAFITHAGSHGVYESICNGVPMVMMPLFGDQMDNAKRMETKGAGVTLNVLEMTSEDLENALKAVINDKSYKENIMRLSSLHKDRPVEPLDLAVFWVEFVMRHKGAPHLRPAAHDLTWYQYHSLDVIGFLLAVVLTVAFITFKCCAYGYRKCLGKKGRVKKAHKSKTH
Method: as §1, §2, §3

Structure (SMILES) | utilization by UGT 1A6 (in words) (UGT 1A6) | utilization by UGT 1A7 (in words) (UGT 1A7) | % utilization by UGT 1A8 (UGT 1A8)
Cc1cc(O)cc2sc(C#N)nc12 [compound 3138] | detectable levels of utilization above background | detectable levels of utilization above background | over 50%
Cc1cc(O)cc2sc(C3=NC(C(=O)O)CS3)nc12 (stereo not drawn) [compound 3478] | only UGT 1A6 was able to utilize compound 3478 to any appreciable extent | only UGT 1A6 was able to utilize compound 3478 to any appreciable extent | ≤ 15%
